PubChem BioAssay (NCI)
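The concentration for 50% growth inhibition is given as GI50. At the TGI there is no net growth.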

Legend:
Test in all cases: NCI-60 cell line screen, 384-well format; in the data active = GI50 below about 0.43 µM; inactive = the rest
MDA-MB-231 breast = system: MDA-MB-231 breast
786-0 renal = system: 786-0 renal
MDA-MB-435 melanoma = system: MDA-MB-435 melanoma
NCI-H522 lung = system: NCI-H522 lung
ACHN renal = system: ACHN renal
HCT-116 colon = system: HCT-116 colon
OVCAR-5 ovarian = system: OVCAR-5 ovarian
SK-MEL-5 melanoma = system: SK-MEL-5 melanoma
RPMI-8226 leukemia = system: RPMI-8226 leukemia
SF-268 CNS = system: SF-268 CNS
KM12 colon = system: KM12 colon
OVCAR-4 ovarian = system: OVCAR-4 ovarian
SNB-75 CNS = system: SNB-75 CNS
A549 NSCLC = system: A549 NSCLC
U251 glioblastoma = system: U251 glioblastoma
HOP-92 NSCLC = system: HOP-92 NSCLC
SF-295 CNS = system: SF-295 CNS
MDA-MB-468 breast = system: MDA-MB-468 breast
SK-OV-3 ovarian = system: SK-OV-3 ovarian
CAKI-1 renal = system: CAKI-1 renal
MCF7 breast = system: MCF7 breast
IGROV1 ovarian = system: IGROV1 ovarian
SK-MEL-28 melanoma = system: SK-MEL-28 melanoma
EKVX NSCLC = system: EKVX NSCLC
COLO 205 colon = system: COLO 205 colon
UACC-62 melanoma = system: UACC-62 melanoma
DU-145 prostate = system: DU-145 prostate
HS 578T breast = system: HS 578T breast
HCC-2998 colon = system: HCC-2998 colon
SF-539 CNS = system: SF-539 CNS
SN12C renal = system: SN12C renal
NCI-H226 lung = system: NCI-H226 lung
A498 renal = system: A498 renal
PC-3 prostate = system: PC-3 prostate
HL-60(TB) leukemia = system: HL-60(TB) leukemia
OVCAR-3 ovarian = system: OVCAR-3 ovarian
SW-620 colon = system: SW-620 colon
MOLT-4 leukemia = system: MOLT-4 leukemia
T-47D breast = system: T-47D breast
TK-10 renal = system: TK-10 renal
SK-MEL-2 melanoma = system: SK-MEL-2 melanoma
NCI-H322M lung = system: NCI-H322M lung
RXF 393 renal = system: RXF 393 renal
HCT-15 colon = system: HCT-15 colon
BT-549 breast = system: BT-549 breast
NCI-H460 NSCLC = system: NCI-H460 NSCLC
UO-31 renal = system: UO-31 renal

C[C@H](NC(=O)c1c(C(F)F)nn(C)c1Oc1cccc(C(F)(F)F)c1)c1ccc(C(=O)O)cc1
inactive: GI50 (MDA-MB-231 breast) > 100 µM | GI50 (786-0 renal) > 100 µM | GI50 (MDA-MB-435 melanoma) > 100 µM | GI50 (NCI-H522 lung) > 100 µM | GI50 (ACHN renal) > 100 µM | GI50 (HCT-116 colon) > 100 µM | GI50 (OVCAR-5 ovarian) > 100 µM | GI50 (SK-MEL-5 melanoma) > 100 µM | GI50 (RPMI-8226 leukemia) > 61.1 µM | GI50 (SF-268 CNS) > 100 µM | GI50 (KM12 colon) > 100 µM | GI50 (OVCAR-4 ovarian) > 100 µM | GI50 (SNB-75 CNS) > 100 µM | GI50 (A549 NSCLC) > 100 µM | GI50 (U251 glioblastoma) > 100 µM | GI50 (HOP-92 NSCLC) > 100 µM | GI50 (SF-295 CNS) > 100 µM | GI50 (MDA-MB-468 breast) > 100 µM | GI50 (SK-OV-3 ovarian) > 100 µM | GI50 (CAKI-1 renal) > 100 µM | GI50 (MCF7 breast) > 100 µM | GI50 (IGROV1 ovarian) > 100 µM | GI50 (SK-MEL-28 melanoma) > 100 µM | GI50 (EKVX NSCLC) > 100 µM | GI50 (COLO 205 colon) > 100 µM | GI50 (UACC-62 melanoma) > 100 µM | GI50 (DU-145 prostate) > 100 µM | GI50 (HS 578T breast) > 100 µM | GI50 (HCC-2998 colon) > 100 µM | GI50 (SF-539 CNS) > 100 µM | GI50 (SN12C renal) > 100 µM | GI50 (NCI-H226 lung) > 100 µM | GI50 (A498 renal) > 100 µM | GI50 (PC-3 prostate) > 100 µM | GI50 (HL-60(TB) leukemia) > 100 µM | GI50 (OVCAR-3 ovarian) > 100 µM | GI50 (SW-620 colon) > 100 µM | GI50 (MOLT-4 leukemia) > 100 µM | GI50 (T-47D breast) > 100 µM | GI50 (TK-10 renal) > 100 µM | GI50 (SK-MEL-2 melanoma) > 100 µM | GI50 (NCI-H322M lung) > 100 µM | GI50 (RXF 393 renal) > 100 µM | GI50 (HCT-15 colon) > 100 µM | GI50 (BT-549 breast) > 100 µM | GI50 (NCI-H460 NSCLC) > 100 µM | GI50 (UO-31 renal) > 100 µM
> 100 µM: TGI (MDA-MB-231 breast) | TGI (786-0 renal) | TGI (MDA-MB-435 melanoma) | TGI (NCI-H522 lung) | TGI (ACHN renal) | TGI (HCT-116 colon) | TGI (OVCAR-5 ovarian) | TGI (SK-MEL-5 melanoma) | TGI (RPMI-8226 leukemia) | TGI (SF-268 CNS) | TGI (KM12 colon) | TGI (OVCAR-4 ovarian) | TGI (SNB-75 CNS) | TGI (A549 NSCLC) | TGI (U251 glioblastoma) | TGI (HOP-92 NSCLC) | TGI (SF-295 CNS) | TGI (MDA-MB-468 breast) | TGI (SK-OV-3 ovarian) | TGI (CAKI-1 renal) | TGI (MCF7 breast) | TGI (IGROV1 ovarian) | TGI (SK-MEL-28 melanoma) | TGI (EKVX NSCLC) | TGI (COLO 205 colon) | TGI (UACC-62 melanoma) | TGI (DU-145 prostate) | TGI (HS 578T breast) | TGI (HCC-2998 colon) | TGI (SF-539 CNS) | TGI (SN12C renal) | TGI (NCI-H226 lung) | TGI (A498 renal) | TGI (PC-3 prostate) | TGI (HL-60(TB) leukemia) | TGI (OVCAR-3 ovarian) | TGI (SW-620 colon) | TGI (MOLT-4 leukemia) | TGI (T-47D breast) | TGI (TK-10 renal) | TGI (SK-MEL-2 melanoma) | TGI (NCI-H322M lung) | TGI (RXF 393 renal) | TGI (HCT-15 colon) | TGI (BT-549 breast) | TGI (NCI-H460 NSCLC) | TGI (UO-31 renal)
